Assay results taken from patent publication US20190336602A1, “STERILISATION OF S-NITROSOTHIOLS” (Salupont Consulting Ltd., priority 2015, published 2019).
Read-outs that look alike come from different tables or passages of the source.

Tests used:
[1] = gamma sterilisation of S-nitrosoglutathione at constrained temperatures (Example 2), HPLC purity and impurities vs non-irradiated control; format: physicochemical
Procedure: The experimental protocol for this Example aims to test in a controlled manner the effects on purity of a sterilizing irradiation temperature (a) at about −80° C. and (b) under positive cooling (with surrounding air temperature in the range about 18 to 24° C. and with the temperature of the vials controlled). The same radiation doses as described for Example 1 were applied. For this Example, S-nitrosoglutathione granule samples, from the same single manufacturing batch as in Example 1, contained in amber glass vials (100 mg/vial) were stored before sterilisation at about −80° C. The irradiation process at −80° C. was achieved by the presence of dry ice, which was placed to ensure low temperature of the vials but without influencing the radiation dose delivery characteristics. The matching controls were not irradiated but underwent similar conditions of thermal management before, during and after irradiation, as compared with the S-nitrosoglutathione vials that were irradiated. The gamma radiation was performed using gamma radiation emitted from cobalt-60 radioactive sources. The S-nitrosoglutathione vials were stored at −80° C. in a freezer and transferred to a dry ice container before irradiation. Before the start of irradiation, the S-nitrosoglutathione vials destined for irradiation at ambient temperature (and control vials) were removed from the −80° C. freezer and transferred to a location where the surrounding temperature was controlled at 18° C. Individual low-temperature containers were used for the samples designated for each target dose and condition of thermal management, as described above in relation to the e-beam arm of this Example. The secondary packaging was placed in the lateral centre at the bottom of first low-temperature container, with the vials oriented upright. […] The arrows marked “γ” show the direction of the radiation. For the S-nitrosoglutathione product requiring cold chain management, dry ice was placed at each lateral short side of the low-temperature container to ensure a cold chain was maintained during the irradiation process. Each low-temperature container was placed in the lateral centre of an irradiation container. The 15 kGy radiation dose lasted 2 hours and 8 minutes whereas the 35 kGy dose lasted about 5 hours and 8 minutes. When necessary, the dry ice was replenished before execution of the second irradiation. Following completion of the irradiation process, the irradiated S-nitrosoglutathione products were placed in the designated −80° C. freezer. The control samples were moved from the 18° C. controlled location to the designated −80° C. freezer upon completion of the second irradiation. The time of transfer was recorded.

[2] = gamma sterilisation of S-nitrosoglutathione at unconstrained temperature (Example 1), HPLC purity and impurities vs non-irradiated control; format: physicochemical
Procedure: S-nitrosoglutathione granule samples from a single manufacturing batch, contained in glass vials (up to 250 mg/vial), were stored before sterilisation surrounded by dry ice (solid CO2) at about −80° C. The matching controls were not irradiated but underwent similar conditions of storage and thermal management before, during and after irradiation, as compared with the S-nitrosoglutathione vials that were irradiated. The control purity levels of the S-nitrosoglutathione, and the level of specific impurities glutathione (GSH) and oxidised glutathione (GSSG) content and total impurities content, were analysed. Vials were exposed to either electron beam (e-beam) irradiations or to gamma irradiations. The vials were removed from the dry ice container and sterilised via two radiation dose conditions (15 kGy and 35 kGy) described below under higher temperature conditions (with surrounding air temperature in the range about 18 to 24° C. and with the temperature of the vials free to fluctuate to higher temperature). After irradiation, the vials were immediately surrounded by dry ice at about −80° C. and analysed for post-sterilisation determination of any changes in purity against the control. The gamma radiation was performed using a moving carrier system set up for delivering a 15 kGy dose and a 35 kGy dose. The 15 kGy dose radiation lasted about 8-10 hours and the temperature reached up to 40° C. The 35 kGy dose radiation lasted about 18-24 hours, with a temperature reaching up to 60° C. The radiation doses received were measured by conventional dosimeters.

[3] = cited from earlier work
[4] = e-beam sterilisation of S-nitrosoglutathione at constrained temperatures (Example 2), HPLC purity and impurities vs non-irradiated control; format: physicochemical; details: few sec.
Procedure: The experimental protocol for this Example aims to test in a controlled manner the effects on purity of a sterilizing irradiation temperature (a) at about −80° C. and (b) under positive cooling (with surrounding air temperature in the range about 18 to 24° C. and with the temperature of the vials controlled). The same radiation doses as described for Example 1 were applied. For this Example, S-nitrosoglutathione granule samples, from the same single manufacturing batch as in Example 1, contained in amber glass vials (100 mg/vial) were stored before sterilisation at about −80° C. The irradiation process at −80° C. was achieved by the presence of dry ice, which was placed to ensure low temperature of the vials but without influencing the radiation dose delivery characteristics. The matching controls were not irradiated but underwent similar conditions of thermal management before, during and after irradiation, as compared with the S-nitrosoglutathione vials that were irradiated. The e-beam radiation was performed using a moving carrier system. The S-nitrosoglutathione vials were stored at −80° C. freezer and transferred to a dry ice container before irradiation. Before the start of irradiation the S-nitrosoglutathione vials destined for irradiation at ambient temperature (and control vials) were removed from the −80° C. freezer and transferred to a location where the surrounding air temperature is controlled at 18° C. Individual low-temperature containers were used for the vials designated for each target dose and condition of thermal management. A secondary packaging box was placed in the lateral centre at the bottom of the first low-temperature container, with the vials oriented upright. The position of each vial in the configuration was documented. The vials were always irradiated from the same side. […] The arrows marked “e” show the direction of the radiation. For the S-nitrosoglutathione vials requiring cold chain management, dry ice was placed at each lateral short side of the container to ensure a cold chain was maintained during the irradiation process. Each container was placed in an irradiation container. Both the 15 kGy e-beam and 35 kGy radiation doses lasted a few seconds. Following completion of the desired irradiation process, the irradiated S-nitrosoglutathione containing vials and correspondent controls were stored at −80° C. in a freezer for subsequent analysis.

[5] = e-beam sterilisation of S-nitrosoglutathione at unconstrained temperature (Example 1), HPLC purity and impurities vs non-irradiated control; format: physicochemical; details: ~27.5 °C
Procedure: S-nitrosoglutathione granule samples from a single manufacturing batch, contained in glass vials (up to 250 mg/vial), were stored before sterilisation surrounded by dry ice (solid CO2) at about −80° C. The matching controls were not irradiated but underwent similar conditions of storage and thermal management before, during and after irradiation, as compared with the S-nitrosoglutathione vials that were irradiated. The control purity levels of the S-nitrosoglutathione, and the level of specific impurities glutathione (GSH) and oxidised glutathione (GSSG) content and total impurities content, were analysed. Vials were exposed to either electron beam (e-beam) irradiations or to gamma irradiations. The vials were removed from the dry ice container and sterilised via two radiation dose conditions (15 kGy and 35 kGy) described below under higher temperature conditions (with surrounding air temperature in the range about 18 to 24° C. and with the temperature of the vials free to fluctuate to higher temperature). After irradiation, the vials were immediately surrounded by dry ice at about −80° C. and analysed for post-sterilisation determination of any changes in purity against the control. The e-beam radiation was performed using a moving carrier system set up for delivering a 15 kGy dose and a 35 kGy dose. The 15 kGy radiation dose lasted about 10-15 minutes and the temperature reached approximately equal to 27.5° C. (designated 27.5° C. in the Tables and Figs.). The 35 kGy radiation dose lasted about 30 minutes and the temperature reached approximately equal to 27.5° C. (designated ˜27.5° C. in the Tables and the Figs.). The radiation doses were measured by conventional dosimeters.

[6] = liquid formulation, after at least 8-12 hours at 4 °C to 25 °C (Looker et al., 2008); cited from earlier work

GSH impurity (% unit change) ([1]; 15 kGy, ~2 h, <27.5 °C): 0.17%
GSNO purity (decrease % of control) ([1]; 15 kGy, ~2 h, <27.5 °C): −0.67%
GSSH impurity (% unit change) ([1]; 15 kGy, ~2 h, <27.5 °C): 0.14%
Total impurities (% unit changes) ([1]; 15 kGy, ~2 h, <27.5 °C): 0.63%
GSH impurity (% unit change) ([1]; 15 kGy, ~2 h, −80 °C): 0.11%
GSNO purity (decrease % of control) ([1]; 15 kGy, ~2 h, −80 °C): −0.26%
GSSH impurity (% unit change) ([1]; 15 kGy, ~2 h, −80 °C): 0.11%
Total impurities (% unit changes) ([1]; 15 kGy, ~2 h, −80 °C): 0.25%
GSH impurity (% unit change) ([1]; 35 kGy, ~5 h, <32.5 °C): 0.43%
GSNO purity (decrease % of control) ([1]; 35 kGy, ~5 h, <32.5 °C): −2.2%
GSSH impurity (% unit change) ([1]; 35 kGy, ~5 h, <32.5 °C): 0.36%
Total impurities (% unit changes) ([1]; 35 kGy, ~5 h, <32.5 °C): 2.11%
GSH impurity (% unit change) ([1]; 35 kGy, ~5 h, −80 °C): 0.29%
GSNO purity (decrease % of control) ([1]; 35 kGy, ~5 h, −80 °C): −1.01%
GSSH impurity (% unit change) ([1]; 35 kGy, ~5 h, −80 °C): 0.36%
Total impurities (% unit changes) ([1]; 35 kGy, ~5 h, −80 °C): 0.96%
GSH impurity (% unit change) ([2]; 15 kGy, 8-10 hours, <40 °C): 0.34%
GSNO purity (decrease % of control) ([2]; 15 kGy, 8-10 hours, <40 °C): −4.47%
GSSH impurity (% unit change) ([2]; 15 kGy, 8-10 hours, <40 °C): 1.25%
Total impurities (% unit changes) ([2]; 15 kGy, 8-10 hours, <40 °C): 4.25%
GSH impurity (% unit change) ([2]; 35 kGy, 18-24 hours, <60 °C): 0.15%
GSNO purity (decrease % of control) ([2]; 35 kGy, 18-24 hours, <60 °C): −9.45%
GSSH impurity (% unit change) ([2]; 35 kGy, 18-24 hours, <60 °C): 6.63%
Total impurities (% unit changes) ([2]; 35 kGy, 18-24 hours, <60 °C): 9.12%
GSH impurity (% unit change) ([4]; 15 kGy, <27.5 °C): 0.13%
GSNO purity (decrease % of control) ([4]; 15 kGy, <27.5 °C): −0.28%
GSSH impurity (% unit change) ([4]; 15 kGy, <27.5 °C): 0.13%
Total impurities (% unit changes) ([4]; 15 kGy, <27.5 °C): 0.27%
GSH impurity (% unit change) ([4]; 15 kGy, −80 °C): 0.10%
GSNO purity (decrease % of control) ([4]; 15 kGy, −80 °C): −0.16%
GSSH impurity (% unit change) ([4]; 15 kGy, −80 °C): 0.10%
Total impurities (% unit changes) ([4]; 15 kGy, −80 °C): 0.16%
GSH impurity (% unit change) ([4]; 35 kGy, <27.5 °C): 0.29%
GSNO purity (decrease % of control) ([4]; 35 kGy, <27.5 °C): −1.12%
GSSH impurity (% unit change) ([4]; 35 kGy, <27.5 °C): 0.23%
Total impurities (% unit changes) ([4]; 35 kGy, <27.5 °C): 1.08%
GSH impurity (% unit change) ([4]; 35 kGy, −80 °C): 0.23%
GSNO purity (decrease % of control) ([4]; 35 kGy, −80 °C): −0.55%
GSSH impurity (% unit change) ([4]; 35 kGy, −80 °C): 0.07%
Total impurities (% unit changes) ([4]; 35 kGy, −80 °C): 0.54%
GSH impurity (% unit change) ([5]; 15 kGy, 10-15 minutes): 0.17%
GSNO purity (decrease % of control) ([5]; 15 kGy, 10-15 minutes): −0.55%
GSSH impurity (% unit change) ([5]; 15 kGy, 10-15 minutes): 0.11%
Total impurities (% unit changes) ([5]; 15 kGy, 10-15 minutes): 0.53%
GSH impurity (% unit change) ([5]; 35 kGy, ~30 minutes): 0.36%
GSNO purity (decrease % of control) ([5]; 35 kGy, ~30 minutes): −1.37%
GSSH impurity (% unit change) ([5]; 35 kGy, ~30 minutes): 0.32%
Total impurities (% unit changes) ([5]; 35 kGy, ~30 minutes): 1.26%
SMILES: N[C@@H](CCC(=O)N[C@@H](CSN=O)C(=O)NCC(=O)O)C(=O)O [GSNO, S-nitrosoglutathione]
time reported to be stable on storage ([3]; solid prepared by a specific method, further controlled air, radiation and temperature conditions (Looker et al., 2008; WO 2008/153762)): 9 months
time reported to be stable on storage ([3]; solid, inert atmosphere (argon and nitrogen), −20 °C, in the dark (Parent et al., 2013)): 6 months
initial S-nitrosoglutathione present after storage [6]: about 85%
